Assay results taken from patent US5393897A, “Isolation and structure of spongistatins 5,7,8 and 9” (Arizona Board of Regents acting on behalf of Arizona State …, priority 1993, dated 1995).
≈ marks a conversion by molar mass, not a printed value. Where two headings read alike, the source gives them in different places.

Tests used:
Assay type in all cases: cell-based
[1] = test system: 60 human tumor cell lines; test: NCI in vitro primary screen, panel of 60 human tumor cell lines; conditions: for Compare Correlation Coefficient: TGI-centered mean graph profiles, spongistatin 1 as seed; for correlation of mean-graph fingerprint with microtubule-interactive antimitotics: pattern-recognition analyses, data not shown; for negative log molar TGI50: various human cancer cell lines
From the text: (§1) Only two hundred years ago, many diseases ravaged humankind. Many of these diseases now have been controlled or eradicated. In the development of the means to treat or control these diseases, work with the appropriate common experimental animals was of critical importance. With the various types of cancers, and with the HIV virus, such work is presently ongoing. The research for the treatment of various types of cancer is coordinated in the United States by the National Cancer Institute (NCI). NCI, as a government entity, has been charged with assisting anti-cancer research. To establish whether a substance has anti-cancer activity, NCI has established a variety of protocols, one of which involves testing the candidate substance against a cell line panel containing 60 human tumor cell lines. This protocol has been verified and is generally accepted throughout the scientific community. This protocol and the established statistical means of evaluating the results obtained therefrom have been fully described in the literature. See Principles & Practice of Oncology PPO Updates, Volume 3, Number 10, October 1989, by Michael R. Boyd, M.D., Ph.D., for an in depth description of the test protocol. The statistical analysis is explained in "Display and Analysis of Patterns of Differential Activity of Drugs Against Human Tumor Cell Lines: Development of Means Graph and COMPARE Algorithm" Journal of the National Cancer Institute Reports Vol. 81, No. 14, Pg. 1088, Jul. 14, 1989, by K. D. Paull et al. Both of these references are incorporated herein by this reference thereto. The effectiveness and validity of the NCI in vitro protocol continues to be verified.
^a All compounds were tested in quadruplicate at five different con-
entire panel of 60 human tumor cell lines comprising the NCI
^c Correlation coefficients from the Compare pattern-recognition
algorithm were calculated by computer using the TGI-centered
mean graph profiles of differential cellular sensitivities to 1, and
5. The TGI mean graph profile of 1 was used as the benchmark or
"seed" for all of the comparisons.

[2] = test system: P388 lymphocytic leukemia cell line; test: P388 lymphocytic leukemia cell line bioassay; conditions: Mus musculus, pure compound
A549/ATCC = test: NCI cell line panel; conditions: Homo sapiens, Non-Small Cell Lung Cancer; for GI50: read-out: Log10 GI50 (converted); for IC (TGI): read-out: Log10 TGI (converted)
From the text: as §1

ACHN = test: NCI cell line panel; conditions: Homo sapiens, Renal Cancer; for GI50: read-out: Log10 GI50 (converted)
From the text: as §1

BT-549 = test: NCI cell line panel; conditions: Homo sapiens
From the text: as §1

CAKI-1 = test: NCI cell line panel; conditions: Homo sapiens, Renal Cancer, read-out: Log10 GI50 (converted)
From the text: as §1

DU-145 = test: NCI cell line panel; conditions: Homo sapiens, Prostate Cancer, read-out: Log10 GI50 (converted)
From the text: as §1

EKVX = test: NCI cell line panel; conditions: Homo sapiens; for GI50: read-out: Log10 GI50 (converted)
From the text: as §1

HCT-15 = test: NCI cell line panel; conditions: Homo sapiens, Colon Cancer, read-out: Log10 GI50 (converted)
From the text: as §1

HOP-62 = test: NCI cell line panel; conditions: Homo sapiens
From the text: as §1

HOP-92 = test: NCI cell line panel; conditions: Homo sapiens, Non-Small Cell Lung Cancer, read-out: Log10 GI50 (converted)
From the text: as §1

HS 578T = test: NCI cell line panel; conditions: Homo sapiens; for GI50: read-out: Log10 GI50 (converted)
From the text: as §1

K-562 = test: NCI cell line panel; conditions: Homo sapiens, K562; Leukemia; read-out: Log10 GI50 (converted)
From the text: as §1

MCF7/ADR-RES = test: NCI cell line panel; conditions: Homo sapiens, Breast Cancer; for GI50: read-out: Log10 GI50 (converted)
From the text: as §1

MCF7 = test: NCI cell line panel; conditions: Homo sapiens, Breast Cancer; for IC (TGI): read-out: Log10 TGI (converted)
From the text: as §1

MDA-MB-231/ATCC = test: NCI cell line panel; conditions: Homo sapiens, Breast Cancer, read-out: Log10 GI50 (converted)
From the text: as §1

NCI-H226 = test: NCI cell line panel; conditions: Homo sapiens, Non-Small Cell Lung Cancer, read-out: Log10 GI50 (converted)
From the text: as §1

NCI-H322M = test: NCI cell line panel; conditions: Homo sapiens, Non-Small Cell Lung Cancer; for GI50: read-out: Log10 GI50 (converted)
From the text: as §1

PC-3 = test: NCI cell line panel; conditions: Homo sapiens, Prostate Cancer; for GI50: read-out: Log10 GI50 (converted); for IC (TGI): read-out: Log10 TGI (converted)
From the text: as §1

SF-268 = test: NCI cell line panel; conditions: Homo sapiens, CNS Cancer; for GI50: read-out: Log10 GI50 (converted); for IC (TGI): read-out: Log10 TGI (converted)
From the text: as §1

SK-OV-3 = test: NCI cell line panel; conditions: Homo sapiens
From the text: as §1

SN12C = test: NCI cell line panel; conditions: Homo sapiens, Renal Cancer; for GI50: read-out: Log10 GI50 (converted)
From the text: as §1

SNB-75 = test: NCI cell line panel; conditions: Homo sapiens, CNS Cancer, read-out: Log10 GI50 (converted)
From the text: as §1

SR = test: NCI cell line panel; conditions: Homo sapiens, Leukemia, read-out: Log10 GI50 (converted)
From the text: as §1

T-47D = test: NCI cell line panel; conditions: Homo sapiens, T47D, Breast Cancer
From the text: as §1

TK-10 = test: NCI cell line panel; conditions: Homo sapiens
From the text: as §1

U251 = test: NCI cell line panel; conditions: Homo sapiens, U-251; CNS Cancer; read-out: Log10 GI50 (converted)
From the text: as §1

UO-31 = test: NCI cell line panel; conditions: Homo sapiens
From the text: as §1

[3] = Homo sapiens, NCI 60 cell line panel, read-out: panel mean GI50
[4] = Homo sapiens, panel mean graph midpoint, read-out: MG-MID, Log10 GI50 (converted)
[5] = Homo sapiens, quadruplicate, five concentrations, standard errors averaged less than 15% of means, read-out: Mean Panel GI50
[6] = read-out: Log10 TGI (converted)
[7] = read-out: Log10 GI50 (converted)

`C=C/C=C/C(O)CC(=C)CC1OC2C(C)C(OC(=O)CC3CC(O)CC4(CC(C)(O)CC(C=C5COC(C(C)C(=O)CC6CC(OC)CC7(CC(O)CC(/C=C\CCCC8OC(O)(CC(O)C8C)C2O)O7)O6)C5C)O4)O3)C1O` (stereo not drawn) [spongistatin 7] was tested, and the “potency and specificity against NCI human cancer cell lines” value [1] was “remarkably potent and specific”, the GI50 [1, 3] was 0.1 nM and the GI50 [1, 4] was 1.17 nM. The GI50 [1, 5] was 1.01 nM, the “Compare Correlation Coefficient” value [1] was 0.81 and the “correlation of mean-graph fingerprint with microtubule-interactive antimitotics” value [1] was “closely correlated”. The “negative log molar TGI50” value [1] was “approximately ten”, the IC50 ([2]; P388, unit inferred, read-out: P388 ED50) was 2.6 ng/mL (≈ 2.36 nM) and the GI50 (A549/ATCC) was 3.47 nM. For the same compound, the IC (TGI) (A549/ATCC) was 100 nM, the GI50 (ACHN) was 10 nM and the IC (TGI) (ACHN; [6]) was 100 nM. It also gave an IC (TGI) (BT-549; BT-549, Breast Cancer, read-out: Log10 TGI (converted)) of 100 nM, a GI50 (CAKI-1) of 12 nM and a GI50 (DU-145) of 1.58 nM. The GI50 (EKVX; Non-Small Cell Lung Cancer) was 41.7 nM, the IC (TGI) (EKVX; Non-Small Cell Lung Cancer, read-out: Log10 TGI (converted)) was 100 nM and the GI50 (HCT-15) was 6.17 nM. It also gave a GI50 (HOP-62; HOP-62, read-out: Log10 GI50 (converted)) of 1 nM, a GI50 (HOP-92) of 5.25 nM and an IC (TGI) (HS 578T; Breast Cancer, read-out: Log10 TGI (converted)) of 100 nM. It also gave a GI50 (HS 578T) of 1.29 nM, a GI50 (K-562) of 0.151 nM and a GI50 (MCF7/ADR-RES) of 77.6 nM. It also gave an IC (TGI) (MCF7/ADR-RES; [6]) of 100 nM, a GI50 (MCF7; [7]) of 0.17 nM and an IC (TGI) (MCF7) of 100 nM. It also gave a GI50 (MDA-MB-231/ATCC) of 1.58 nM, a GI50 (NCI-H226) of 2 nM and a GI50 (NCI-H322M) of 3.24 nM. For the same compound, the IC (TGI) (NCI-H322M; [6]) was 100 nM, the GI50 (PC-3) was 0.372 nM and the IC (TGI) (PC-3) was 52.5 nM. It also gave a GI50 (SF-268) of 6.31 nM, an IC (TGI) (SF-268) of 100 nM and a GI50 (SK-OV-3; SK-OV-3, read-out: Log10 GI50 (converted)) of 1 nM. The GI50 (SN12C) was 2.19 nM, the IC (TGI) (SN12C; [6]) was 100 nM and the GI50 (SNB-75) was 0.372 nM. It also gave a GI50 (SR) of 0.0912 nM, an IC (TGI) (T-47D; [6]) of 100 nM and a GI50 (TK-10; TK-10, read-out: Log10 GI50 (converted)) of 56.2 nM. For the same compound, the IC (TGI) (TK-10; TK-10, Renal Cancer, read-out: Log10 TGI (converted)) was 100 nM, the GI50 (U251) was 0.759 nM and the GI50 (UO-31; UO-31, Renal Cancer, read-out: Log10 GI50 (converted)) was 24 nM.
With `C=C(Cl)/C=C/C(O)CC(=C)CC1OC2C(C)C(OC(=O)CC3CC(O)CC4(CC(C)(O)CC(C=C5COC(C(C)C(=O)CC6CC(OC)CC7(CC(O)CC(/C=C\CCCC8OC(O)(CC(O)C8C)C2O)O7)O6)C5C)O4)O3)C1O` (stereo not drawn) [spongistatin 5] the “potency and specificity against NCI human cancer cell lines” value [1] was “remarkably potent and specific”, the LC50 ([1]; Homo sapiens, read-out: MG-MID, Log10 LC50 (converted)) was 79.4 nM and the GI50 [1, 3] was 0.1 nM. The GI50 [1, 4] was 0.0631 nM, the IC (TGI) ([1]; Homo sapiens, panel mean graph midpoint, read-out: MG-MID, Log10 TGI (converted)) was 13.8 nM and the GI50 [1, 5] was 0.123 nM. The “Compare Correlation Coefficient” value [1] was 0.92, the “correlation of mean-graph fingerprint with microtubule-interactive antimitotics” value [1] was “closely correlated” and the “negative log molar TGI50” value [1] was “approximately ten”. For the same compound, the IC50 ([2]; PS (P388), read-out: ED50 (the source's name)) was 0.066 ng/mL (≈ 0.058 nM), the GI50 (A549/ATCC) was 0.0209 nM and the IC (TGI) (A549/ATCC) was 75.9 nM. The GI50 (ACHN) was 0.562 nM, the GI50 (BT-549; BT-549, read-out: Log10 GI50 (converted)) was 0.219 nM and the GI50 (CAKI-1) was 0.0575 nM. The GI50 (DU-145) was 0.024 nM, the GI50 (EKVX) was 0.182 nM and the GI50 (HCT-15) was 0.0631 nM. For the same compound, the GI50 (HOP-62; HOP-62, Non-Small Cell Lung Cancer, read-out: Log10 GI50 (converted)) was 0.151 nM, the GI50 (HOP-92) was 1.41 nM and the GI50 (HS 578T; Breast Cancer) was 0.437 nM. For the same compound, the GI50 (K-562) was 0.1 nM, the GI50 (MCF7/ADR-RES) was 0.912 nM and the IC (TGI) (MCF7) was 39.8 nM. The GI50 (MDA-MB-231/ATCC) was 0.251 nM, the GI50 (NCI-H226) was 0.759 nM and the GI50 (NCI-H322M) was 0.0891 nM. For the same compound, the GI50 (PC-3) was 0.0151 nM, the IC (TGI) (PC-3) was 100 nM and the GI50 (SF-268) was 0.151 nM. It also gave an IC (TGI) (SF-268) of 100 nM, a GI50 (SK-OV-3; SK-OV-3, Ovarian Cancer, read-out: Log10 GI50 (converted)) of 0.191 nM and a GI50 (SN12C) of 0.0603 nM. The GI50 (SNB-75) was 0.012 nM, the GI50 (SR) was 0.012 nM and the GI50 (T-47D; [7]) was 100 nM. For the same compound, the GI50 (TK-10; TK-10, Renal Cancer, read-out: Log10 GI50 (converted)) was 36.3 nM, the GI50 (U251) was 0.0617 nM and the GI50 (UO-31; UO-31, read-out: Log10 GI50 (converted)) was 0.427 nM.
